Inconclusive results and toxic doses are left out. How the source made its calls: active means survival T/C of 150% or more; inactive means T/C below 125% in these data.
Test system: BDF1 mice, B16 melanoma ip, median survival T/C
Assay: NCI In Vivo Anticancer Drug Screen. Data for tumor model B16 Melanoma (intraperitoneal) in B6D2F1 (BDF1) mice
Settings: endpoint: median survival time, higher = longer survival
Summary of the method: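 Read-out: survival or tumor size, given as treated/control ratio. Controls received vehicle only; animals bore transplantable tumors.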

[1] = dose: 100.0 mg/kg/injection, schedule: Q01DX009 (ip), vehicle: Klucel (hydroxypropylcellulose) (HPC)
[2] = dose: 200.0 mg/kg/injection, schedule: Q01DX009 (ip), vehicle: Klucel (hydroxypropylcellulose) (HPC)
[3] = dose: 12.5 mg/kg/injection, schedule: Q01DX009 (ip), vehicle: saline with Tween-80
[4] = dose: 25.0 mg/kg/injection, schedule: Q01DX009 (ip), vehicle: saline with Tween-80
[5] = dose: 50.0 mg/kg/injection, schedule: Q01DX009 (ip), vehicle: saline with Tween-80
[6] = dose: 100.0 mg/kg/injection, schedule: Q01DX009 (ip), vehicle: saline with Tween-80
[7] = dose: 200.0 mg/kg/injection, schedule: Q01DX009 (ip), vehicle: saline with Tween-80
[8] = dose: 50.0 mg/kg/injection, schedule: Q04DX003 (ip), vehicle: saline
[9] = dose: 100.0 mg/kg/injection, schedule: Q04DX003 (ip), vehicle: Klucel (hydroxypropylcellulose) (HPC)
[10] = dose: 200.0 mg/kg/injection, schedule: Q04DX003 (ip), vehicle: Klucel (hydroxypropylcellulose) (HPC)
[11] = dose: 50.0 mg/kg/injection, schedule: Q01DX009 (ip), vehicle: saline

Measured: T/C

COC(=O)[C@@H]1[C@H](O)[C@H](C)[C@H](O)[C@H](C)/C=C\C=C(C)C(=O)Nc2c(C)c(OC(C)=O)c3c(c2O)C(=O)C(C)=C2OCOC(=C23)C(C)=C[C@@](C)(O)[C@H](O)[C@@H](C)[C@H]1OC(C)=O
inactive: [1] 104 % of control | dose: 100.0 mg/kg/injection, schedule: Q01DX009 (ip), vehicle: carboxymethylcellulose (CMC) 103 % of control | [2] 94 % of control | dose: 200.0 mg/kg/injection, schedule: Q01DX009 (ip), vehicle: carboxymethylcellulose (CMC) 123 % of control | dose: 400.0 mg/kg/injection, schedule: Q01DX009 (ip), vehicle: carboxymethylcellulose (CMC) 97 % of control

C[Si](C)(C)O/C=C1\CCCCC1=O
inactive: dose: 6.25 mg/kg/injection, schedule: Q01DX009 (ip), vehicle: saline with Tween-80 96 % of control | [3] 99 % of control | [4] 92 % of control | [5] 94 % of control | [6] 88 % of control | [7] 94 % of control

CC1(C)N=C(N)N=C(N)N1c1ccc(CNC(=O)Nc2ccc(S(=O)(=O)F)cc2)cc1
inactive: [8] 112 % of control

N=C(N)NC(=N)Nc1ccc(NC(=O)Nc2ccc(Nc3c4ccccc4nc4cc([N+](=O)[O-])ccc34)cc2)cc1
inactive: dose: 0.8 mg/kg/injection, schedule: Q01DX009 (ip), vehicle: water 98 % of control | dose: 1.6 mg/kg/injection, schedule: Q01DX009 (ip), vehicle: water 100 % of control | dose: 3.13 mg/kg/injection, schedule: Q01DX009 (ip), vehicle: water 102 % of control | dose: 6.25 mg/kg/injection, schedule: Q01DX009 (ip), vehicle: water 104 % of control | dose: 12.5 mg/kg/injection, schedule: Q01DX009 (ip), vehicle: water 94 % of control

CC(Br)C(=O)NC(Cc1ccccc1)C(=O)O (stereo not drawn)
inactive: [5] 94 % of control | [6] 91 % of control

CCCCCCCCOc1ccc(C(=O)c2ccccc2)c(O)c1
inactive: dose: 6.0 mg/kg/injection, schedule: Q01DX009 (ip), vehicle: Klucel (hydroxypropylcellulose) (HPC) 92 % of control | [9] 91 % of control | [10] 93 % of control

CC[N+](CC)(CC)CC
inactive: dose: 0.37 mg/kg/injection, schedule: Q01DX009 (ip), vehicle: saline with Tween-80 103 % of control | dose: 0.75 mg/kg/injection, schedule: Q01DX009 (ip), vehicle: saline with Tween-80 100 % of control | dose: 1.5 mg/kg/injection, schedule: Q01DX009 (ip), vehicle: saline with Tween-80 112 % of control | dose: 3.0 mg/kg/injection, schedule: Q01DX009 (ip), vehicle: saline with Tween-80 120 % of control | dose: 6.25 mg/kg/injection, schedule: Q01DX009 (ip), vehicle: saline 123 % of control | dose: 11.0 mg/kg/injection, schedule: Q01DX009 (ip), vehicle: saline 112 % of control | dose: 12.5 mg/kg/injection, schedule: Q01DX009 (ip), vehicle: saline 109 % of control | dose: 16.5 mg/kg/injection, schedule: Q01DX009 (ip), vehicle: saline 108 % of control | dose: 25.0 mg/kg/injection, schedule: Q04DX003 (ip), vehicle: saline 100 % of control | dose: 37.5 mg/kg/injection, schedule: Q01DX009 (ip), vehicle: saline 108 % of control | [11] 90 % of control | [8] 100 % of control

O=C(Oc1cccc(OC(=O)c2ccc(Cl)cc2)c1)c1ccc(Cl)cc1
inactive: [1] 89 % of control | [2] 89 % of control

C=C(C)C(=O)OC1CCC2(C)C(CCC3C2CCC2(C)C(c4ccc(=O)oc4)CC4OC432)C1 (stereo not drawn)
inactive: dose: 1.25 mg/kg/injection, schedule: Q01DX009 (ip), vehicle: saline with Tween-80 100 % of control | dose: 2.5 mg/kg/injection, schedule: Q01DX009 (ip), vehicle: saline with Tween-80 94 % of control | dose: 5.0 mg/kg/injection, schedule: Q01DX009 (ip), vehicle: saline with Tween-80 96 % of control | dose: 10.0 mg/kg/injection, schedule: Q01DX009 (ip), vehicle: saline with Tween-80 107 % of control | dose: 20.0 mg/kg/injection, schedule: Q01DX009 (ip), vehicle: saline with Tween-80 102 % of control

CCC1=C(c2cc(Cl)c3ccccc3c2OCC(=O)O)OC(CC)(C(=O)c2cc(Cl)c3ccccc3c2OCC(=O)O)CC1 (stereo not drawn)
inactive: dose: 25.0 mg/kg/injection, schedule: Q01DX009 (ip), vehicle: Klucel (hydroxypropylcellulose) (HPC) 102 % of control | dose: 30.0 mg/kg/injection, schedule: Q01DX009 (ip), vehicle: saline with Tween-80 90 % of control | dose: 50.0 mg/kg/injection, schedule: Q01DX009 (ip), vehicle: Klucel (hydroxypropylcellulose) (HPC) 102 % of control | dose: 60.0 mg/kg/injection, schedule: Q01DX009 (ip), vehicle: saline with Tween-80 93 % of control | [1] 102 % of control | dose: 100.0 mg/kg/injection, schedule: Q04DX003 (ip), vehicle: saline with Tween-80 110 % of control | dose: 120.0 mg/kg/injection, schedule: Q01DX009 (ip), vehicle: saline with Tween-80 93 % of control | dose: 200.0 mg/kg/injection, schedule: Q04DX003 (ip), vehicle: saline with Tween-80 95 % of control | dose: 240.0 mg/kg/injection, schedule: Q01DX009 (ip), vehicle: saline with Tween-80 86 % of control

O=C(NC(Cc1ccc(O)cc1)C(=O)O)c1ccccc1 (stereo not drawn)
inactive: [5] 105 % of control | [6] 100 % of control | [7] 89 % of control | dose: 400.0 mg/kg/injection, schedule: Q01DX009 (ip), vehicle: saline with Tween-80 88 % of control

NC(Cn1ccc(=O)c(O)c1)C(=O)O (stereo not drawn)
inactive: [11] 109 % of control | dose: 100.0 mg/kg/injection, schedule: Q01DX007 (ip), vehicle: saline with Tween-80 98 % of control | dose: 100.0 mg/kg/injection, schedule: Q01DX009 (ip), vehicle: saline 107 % of control | dose: 200.0 mg/kg/injection, schedule: Q01DX007 (ip), vehicle: saline with Tween-80 88 % of control | dose: 200.0 mg/kg/injection, schedule: Q01DX009 (ip), vehicle: saline 109 % of control | dose: 294.0 mg/kg/injection, schedule: Q01DX007 (ip), vehicle: saline with Tween-80 117 % of control | dose: 300.0 mg/kg/injection, schedule: Q01DX007 (ip), vehicle: saline with Tween-80 86 % of control | dose: 367.5 mg/kg/injection, schedule: Q01DX007 (oral), vehicle: saline with Tween-80 103 % of control | dose: 420.0 mg/kg/injection, schedule: Q01DX007 (ip), vehicle: saline with Tween-80 96 % of control | dose: 525.0 mg/kg/injection, schedule: Q01DX007 (oral), vehicle: saline with Tween-80 96 % of control | dose: 750.0 mg/kg/injection, schedule: Q01DX007 (oral), vehicle: saline with Tween-80 98 % of control

COC(=O)C1CCC(C(=O)O)CC1 (stereo not drawn)
inactive: [9] 100 % of control | [10] 100 % of control

O=[N+]([O-])c1ccccc1O
inactive: [3] 97 % of control | dose: 12.5 mg/kg/injection, schedule: Q04DX003 (ip), vehicle: saline with Tween-80 94 % of control | [4] 92 % of control | dose: 25.0 mg/kg/injection, schedule: Q04DX003 (ip), vehicle: saline with Tween-80 91 % of control | [5] 100 % of control | dose: 50.0 mg/kg/injection, schedule: Q04DX003 (ip), vehicle: saline with Tween-80 100 % of control
